Test system: 633275-114-R-J1-PDC complex spheroids, viability
Test: Anticancer human tumor 633275-114-R-J1-PDC patient-derived endometrial adenocarcinoma cell line growth inhibition [GQUAD]
Settings: for IC50: curve of first compound; for viability, T/C: stronger effect = lower value
Method in brief: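 Multi-cell-type spheroids of tumor cells with HUVEC and mesenchymal stem cells, treated with drug combinations. Concentrations descend in half-log steps from near clinical Cmax, or from 10 microM where Cmax is unknown; viability read-out.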

[1] = second compound 0.0316 µM, first compound 0.0316 µM
[2] = second compound 0.0316 µM, first compound 0.1 µM
[3] = second compound 0.0316 µM, first compound 0.316 µM
[4] = second compound 0.0316 µM, first compound 1 µM
[5] = second compound 0.0316 µM, first compound 3.16 µM
[6] = second compound 0.0316 µM, first compound 10 µM
[7] = second compound 0.1 µM, first compound 0.0316 µM
[8] = second compound 0.1 µM, first compound 0.1 µM
[9] = second compound 0.1 µM, first compound 0.316 µM
[10] = second compound 0.1 µM, first compound 1 µM
[11] = second compound 0.1 µM, first compound 3.16 µM
[12] = second compound 0.1 µM, first compound 10 µM
[13] = second compound 0.316 µM, first compound 0.0316 µM
[14] = second compound 0.316 µM, first compound 0.1 µM
[15] = second compound 0.316 µM, first compound 0.316 µM
[16] = second compound 0.316 µM, first compound 1 µM
[17] = second compound 0.316 µM, first compound 3.16 µM
[18] = second compound 0.316 µM, first compound 10 µM
[19] = second compound 1 µM, first compound 0.0316 µM
[20] = second compound 1 µM, first compound 0.1 µM
[21] = second compound 1 µM, first compound 0.316 µM
[22] = second compound 1 µM, first compound 1 µM
[23] = second compound 1 µM, first compound 3.16 µM
[24] = second compound 1 µM, first compound 10 µM
[25] = second compound 3.16 µM, first compound 0.0316 µM
[26] = second compound 3.16 µM, first compound 0.1 µM
[27] = second compound 3.16 µM, first compound 0.316 µM
[28] = second compound 3.16 µM, first compound 1 µM
[29] = second compound 3.16 µM, first compound 3.16 µM
[30] = second compound 3.16 µM, first compound 10 µM
[31] = second compound 10 µM, first compound 0.0316 µM
[32] = second compound 10 µM, first compound 0.1 µM
[33] = second compound 10 µM, first compound 0.316 µM
[34] = second compound 10 µM, first compound 1 µM
[35] = second compound 10 µM, first compound 3.16 µM
[36] = second compound 10 µM, first compound 10 µM
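Also: spheroids exposed to the agents for seven days.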
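For viability, T/C in this document: percent of DMSO vehicle control viability which is 100%.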

SMILES: CC1COCCN1c1cc(C2(O)CC3CCC(C2)O3)c2cnn(-c3ccn[nH]3)c2n1 (stereo unspecified) + Cc1cnc(CNC(=O)c2c(=O)c3ccc(N4CCCN(C)CC4)nc3n3c2sc2ccccc23)cn1
- IC50 (second compound 0.0316 µM): < 31.6 nM
- IC50 (second compound 0.1 µM): < 31.6 nM
- IC50 (second compound 0.316 µM): < 31.6 nM
- IC50 (second compound 1 µM): < 31.6 nM
- IC50 (second compound 3.16 µM): < 31.6 nM
- IC50 (second compound 10 µM): < 31.6 nM
- viability, T/C [1]: 37.6%
- viability, T/C [2]: 31.2%
- viability, T/C [3]: 25%
- viability, T/C [4]: 19.6%
- viability, T/C [5]: 12.4%
- viability, T/C [6]: 8.78%
- viability, T/C [7]: 38.3%
- viability, T/C [8]: 28.8%
- viability, T/C [9]: 24.3%
- viability, T/C [10]: 17.5%
- viability, T/C [11]: 11.4%
- viability, T/C [12]: 7.39%
- viability, T/C [13]: 36.4%
- viability, T/C [14]: 33%
- viability, T/C [15]: 25%
- viability, T/C [16]: 15.8%
- viability, T/C [17]: 11.2%
- viability, T/C [18]: 6.81%
- viability, T/C [19]: 29.6%
- viability, T/C [20]: 27.9%
- viability, T/C [21]: 24.2%
- viability, T/C [22]: 14.8%
- viability, T/C [23]: 10.2%
- viability, T/C [24]: 4.76%
- viability, T/C [25]: 31.6%
- viability, T/C [26]: 25.4%
- viability, T/C [27]: 19.5%
- viability, T/C [28]: 12.9%
- viability, T/C [29]: 9.19%
- viability, T/C [30]: 5.97%
- viability, T/C [31]: 29.4%
- viability, T/C [32]: 24.4%
- viability, T/C [33]: 17%
- viability, T/C [34]: 12.7%
- viability, T/C [35]: 10.2%
- viability, T/C [36]: 0.18%

SMILES: CC1COCCN1c1cc(C2(S(C)(=N)=O)CC2)nc(-c2ccnc3[nH]ccc23)n1 (stereo unspecified) + Cc1cnc(CNC(=O)c2c(=O)c3ccc(N4CCCN(C)CC4)nc3n3c2sc2ccccc23)cn1
- IC50 (second compound 0.0316 µM): 1600 nM
- IC50 (second compound 0.1 µM): < 31.6 nM
- IC50 (second compound 0.316 µM): < 31.6 nM
- IC50 (second compound 1 µM): < 31.6 nM
- IC50 (second compound 3.16 µM): < 31.6 nM
- IC50 (second compound 10 µM): < 31.6 nM
- viability, T/C [1]: 67.5%
- viability, T/C [2]: 64.5%
- viability, T/C [3]: 59.1%
- viability, T/C [4]: 49.6%
- viability, T/C [5]: 50.2%
- viability, T/C [6]: 29.7%
- viability, T/C [7]: 51.9%
- viability, T/C [8]: 47.3%
- viability, T/C [9]: 49.1%
- viability, T/C [10]: 41.5%
- viability, T/C [11]: 44.7%
- viability, T/C [12]: 27.4%
- viability, T/C [13]: 47.5%
- viability, T/C [14]: 46%
- viability, T/C [15]: 43.4%
- viability, T/C [16]: 41.1%
- viability, T/C [17]: 35.7%
- viability, T/C [18]: 24.4%
- viability, T/C [19]: 37.8%
- viability, T/C [20]: 40.3%
- viability, T/C [21]: 35.7%
- viability, T/C [22]: 37.8%
- viability, T/C [23]: 39%
- viability, T/C [24]: 27%
- viability, T/C [25]: 33.5%
- viability, T/C [26]: 34%
- viability, T/C [27]: 32.2%
- viability, T/C [28]: 30.6%
- viability, T/C [29]: 31.1%
- viability, T/C [30]: 22.7%
- viability, T/C [31]: 33.8%
- viability, T/C [32]: 28.8%
- viability, T/C [33]: 31.5%
- viability, T/C [34]: 29.1%
- viability, T/C [35]: 33.6%
- viability, T/C [36]: 23.9%

SMILES: COc1ccc([C@@H](O)c2cc(-c3ncnc4cc(N5CCOCC5)ccc34)c(F)cc2Cl)nn1 + Cc1cnc(CNC(=O)c2c(=O)c3ccc(N4CCCN(C)CC4)nc3n3c2sc2ccccc23)cn1
- IC50 (second compound 0.0316 µM): 179 nM
- IC50 (second compound 0.1 µM): 60.3 nM
- IC50 (second compound 0.316 µM): < 31.6 nM
- IC50 (second compound 1 µM): < 31.6 nM
- IC50 (second compound 3.16 µM): < 31.6 nM
- IC50 (second compound 10 µM): < 31.6 nM
- viability, T/C [1]: 59.8%
- viability, T/C [2]: 60.3%
- viability, T/C [3]: 40.9%
- viability, T/C [4]: 29.2%
- viability, T/C [5]: 19.2%
- viability, T/C [6]: 12.2%
- viability, T/C [7]: 51.5%
- viability, T/C [8]: 50.5%
- viability, T/C [9]: 36.1%
- viability, T/C [10]: 25%
- viability, T/C [11]: 18.8%
- viability, T/C [12]: 11.2%
- viability, T/C [13]: 48.6%
- viability, T/C [14]: 45.7%
- viability, T/C [15]: 30.1%
- viability, T/C [16]: 24.9%
- viability, T/C [17]: 20.6%
- viability, T/C [18]: 11.9%
- viability, T/C [19]: 40.2%
- viability, T/C [20]: 37.9%
- viability, T/C [21]: 28.4%
- viability, T/C [22]: 24.6%
- viability, T/C [23]: 18.1%
- viability, T/C [24]: 11.1%
- viability, T/C [25]: 34%
- viability, T/C [26]: 29.4%
- viability, T/C [27]: 27.6%
- viability, T/C [28]: 21.8%
- viability, T/C [29]: 18.7%
- viability, T/C [30]: 11.5%
- viability, T/C [31]: 30.8%
- viability, T/C [32]: 27.5%
- viability, T/C [33]: 28.6%
- viability, T/C [34]: 19.9%
- viability, T/C [35]: 16%
- viability, T/C [36]: 3.93%
